Assay results taken from PubChem BioAssay (NCI).
Where “and” joins values, the source holds several entries; their conditions need not be identical. Identical values can stand only once.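 These data come from cells grown in 96-well plates and exposed to compound for 48 hours at five concentrations. GI50 marks 50% less growth. TGI marks complete inhibition of growth.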

Legend:
Experiment in all cases: NCI tumour cell line growth inhibition, 48 h
ACHN renal = tested on: ACHN renal
MALME-3M melanoma = tested on: MALME-3M melanoma
DLD-1 colon = tested on: DLD-1 colon
DMS 114 small cell lung = tested on: DMS 114 small cell lung
SNB-75 CNS = tested on: SNB-75 CNS
SF-268 CNS = tested on: SF-268 CNS
M19-MEL melanoma = tested on: M19-MEL melanoma
DU-145 prostate = tested on: DU-145 prostate
RXF-631 renal = tested on: RXF-631 renal
SR leukemia = tested on: SR leukemia
CAKI-1 renal = tested on: CAKI-1 renal
MCF7 breast = tested on: MCF7 breast
HCT-116 colon = tested on: HCT-116 colon
OVCAR-3 ovarian = tested on: OVCAR-3 ovarian
HOP-92 NSCLC = tested on: HOP-92 NSCLC
RPMI-8226 leukemia = tested on: RPMI-8226 leukemia
MDA-N = tested on: MDA-N
LXFL 529 NSCLC = tested on: LXFL 529 NSCLC
HOP-62 NSCLC = tested on: HOP-62 NSCLC
XF 498 CNS = tested on: XF 498 CNS
NCI-H522 lung = tested on: NCI-H522 lung
CCRF-CEM leukemia = tested on: CCRF-CEM leukemia
MDA-MB-435 = tested on: MDA-MB-435
NCI-H226 lung = tested on: NCI-H226 lung
TK-10 renal = tested on: TK-10 renal
SK-MEL-5 melanoma = tested on: SK-MEL-5 melanoma
SK-MEL-28 melanoma = tested on: SK-MEL-28 melanoma
HT29 colon = tested on: HT29 colon
RXF 393 renal = tested on: RXF 393 renal
DMS 273 small cell lung = tested on: DMS 273 small cell lung
HCT-15 colon = tested on: HCT-15 colon
786-0 renal = tested on: 786-0 renal
COLO 205 colon = tested on: COLO 205 colon
HS 578T breast = tested on: HS 578T breast
OVCAR-4 ovarian = tested on: OVCAR-4 ovarian
NCI/ADR-RES ovarian = tested on: NCI/ADR-RES ovarian
T-47D breast = tested on: T-47D breast
U251 CNS = tested on: U251 CNS
SF-539 CNS = tested on: SF-539 CNS
LOX IMVI melanoma = tested on: LOX IMVI melanoma
MDA-MB-231 breast = tested on: MDA-MB-231 breast
OVCAR-5 ovarian = tested on: OVCAR-5 ovarian
KM20L2 colon = tested on: KM20L2 colon
HCC-2998 colon = tested on: HCC-2998 colon
BT-549 breast = tested on: BT-549 breast
UACC-62 melanoma = tested on: UACC-62 melanoma
EKVX NSCLC = tested on: EKVX NSCLC
M14 melanoma = tested on: M14 melanoma
SN12C renal = tested on: SN12C renal
UO-31 renal = tested on: UO-31 renal
IGROV1 ovarian = tested on: IGROV1 ovarian
SNB-78 CNS = tested on: SNB-78 CNS
UACC-257 melanoma = tested on: UACC-257 melanoma
NCI-H23 lung = tested on: NCI-H23 lung
SF-295 CNS = tested on: SF-295 CNS
HOP-18 NSCLC = tested on: HOP-18 NSCLC
OVCAR-8 ovarian = tested on: OVCAR-8 ovarian
PC-3 prostate = tested on: PC-3 prostate
KM12 colon = tested on: KM12 colon

Nc1ccc2cc3ccc(N)cc3nc2c1
GI50 (ACHN renal): 0.609 µM | GI50 (MALME-3M melanoma): 1.16 µM [middle of 4 runs] | TGI (MALME-3M melanoma): 3.21 µM [middle of 4 runs] | TGI (DLD-1 colon): 10.5 µM | TGI (DMS 114 small cell lung): 3.03 µM | TGI (SNB-75 CNS): 3.25 µM [middle of 4 runs] | GI50 (SF-268 CNS): 1.12 µM | TGI (SF-268 CNS): 10.2 µM [middle of 4 runs] | TGI (M19-MEL melanoma): 4.07 µM | GI50 (DU-145 prostate): 1.45 µM | TGI (DU-145 prostate): 18.1 µM and 10 µM and 9.47 µM | TGI (RXF-631 renal): 4.41 µM | TGI (SR leukemia): 14.1 µM and 2.1 µM and 6.96 µM | GI50 (CAKI-1 renal): 0.723 µM | GI50 (MCF7 breast): 0.52 µM | TGI (MCF7 breast): 7.19 µM and 22.6 µM and 14.5 µM | TGI (HCT-116 colon): 10.8 µM [middle of 4 runs] | GI50 (OVCAR-3 ovarian): 1.7 µM | TGI (HOP-92 NSCLC): 6.14 µM and 6.32 µM and 7.11 µM | TGI (RPMI-8226 leukemia): 4.77 µM and 5.01 µM and 6.42 µM | TGI (MDA-N): 3.79 µM and 2.77 µM | TGI (LXFL 529 NSCLC): 10.3 µM | GI50 (HOP-62 NSCLC): 0.795 µM | TGI (XF 498 CNS): 5.8 µM | GI50 (NCI-H522 lung): 0.295 µM and 0.542 µM and 0.824 µM | TGI (NCI-H522 lung): 1.31 µM and 2.82 µM and 2.87 µM | GI50 (CCRF-CEM leukemia): 1.92 µM | TGI (MDA-MB-435): 4.37 µM and 4.04 µM | TGI (NCI-H226 lung): 4.3 µM [middle of 4 runs] | GI50 (TK-10 renal): 0.513 µM | TGI (SK-MEL-5 melanoma): 2.74 µM and 4.33 µM and 2.93 µM | TGI (SK-MEL-28 melanoma): 5.11 µM [middle of 4 runs] | TGI (HT29 colon): 9.02 µM [middle of 4 runs] | GI50 (RXF 393 renal): 2.03 µM and 1.36 µM and 0.565 µM | TGI (RXF 393 renal): 5.83 µM and 3.15 µM and 1.97 µM | TGI (DMS 273 small cell lung): 3.33 µM | GI50 (HCT-15 colon): 1.95 µM [middle of 4 runs] | GI50 (786-0 renal): 1.97 µM [middle of 4 runs] | TGI (786-0 renal): 11.8 µM [middle of 4 runs] | GI50 (COLO 205 colon): 0.936 µM | TGI (HS 578T breast): 6.59 µM and 7.97 µM and 9.65 µM | GI50 (OVCAR-4 ovarian): 1.21 µM [middle of 4 runs] | TGI (OVCAR-4 ovarian): 4.23 µM [middle of 4 runs] | GI50 (NCI/ADR-RES ovarian): 1.21 µM | TGI (NCI/ADR-RES ovarian): 5.25 µM and 5.26 µM and 11.2 µM | TGI (T-47D breast): 14.9 µM and 9.61 µM and 8.53 µM | TGI (U251 CNS): 11.4 µM and 10.4 µM and 9.94 µM | GI50 (SF-539 CNS): 1.56 µM | TGI (SF-539 CNS): 4.54 µM [middle of 4 runs] | TGI (LOX IMVI melanoma): 7.71 µM and 3.58 µM and 3.09 µM | TGI (MDA-MB-231 breast): 7.94 µM and 5.03 µM and 8.4 µM | GI50 (OVCAR-5 ovarian): 1.97 µM | TGI (OVCAR-5 ovarian): 4.98 µM and 30.1 µM and 28.6 µM | TGI (KM20L2 colon): 6.61 µM | TGI (HCC-2998 colon): 4.87 µM and 2.56 µM and 2.47 µM | GI50 (BT-549 breast): 1.91 µM | TGI (BT-549 breast): 10.4 µM and 16.2 µM and 12 µM | TGI (UACC-62 melanoma): 3.73 µM [middle of 4 runs] | GI50 (EKVX NSCLC): 0.64 µM | TGI (EKVX NSCLC): 10.6 µM and 6.53 µM and 7.66 µM | GI50 (M14 melanoma): 1.77 µM [middle of 4 runs] | GI50 (SN12C renal): 1.18 µM | GI50 (UO-31 renal): 0.412 µM | TGI (UO-31 renal): 5.13 µM [middle of 4 runs] | GI50 (IGROV1 ovarian): 2.07 µM [middle of 4 runs] | TGI (IGROV1 ovarian): 7.69 µM [middle of 4 runs] | TGI (SNB-78 CNS): 9.23 µM | GI50 (UACC-257 melanoma): 0.994 µM | TGI (UACC-257 melanoma): 5.03 µM [middle of 4 runs] | GI50 (NCI-H23 lung): 1.58 µM [middle of 4 runs] | GI50 (SF-295 CNS): 1.47 µM | TGI (SF-295 CNS): 7.12 µM [middle of 4 runs] | TGI (HOP-18 NSCLC): 8.41 µM | GI50 (OVCAR-8 ovarian): 0.599 µM | GI50 (PC-3 prostate): 0.857 µM and 1.96 µM and 1.5 µM | TGI (PC-3 prostate): 4.88 µM and 24.7 µM | GI50 (KM12 colon): 631 nM [middle of 4 runs] | TGI (KM12 colon): 6.73 µM [middle of 4 runs]
